The source of these data is patent publication US7687508B2, “Cyclic derivatives as modulators of chemokine receptor activity” (Bristol-Myers Squibb Company, priority 2006, dated 2010).

Data set [1] concerns the target T1, hERG (Homo sapiens, UniProt Q12809).
T1 construct: expressed in transfected cells
Nature of the data set: hERG patch clamp (whole-cell, HEK-293). Format: cell-based. The conditions noted are these: for inhibition at 10000 nM: pH 7.4, 10,000 nM; for inhibition at 30000 nM: pH 7.4, 30,000 nM. In general terms: Block of hERG is tested as a sign of cardiac risk.

For data set [2], the target named is human cardiac sodium channel, SCN5A (Nav1.5) (Homo sapiens, UniProt Q14524). In words: Sodium channel patch clamp (whole-cell, HEK-293). The data set is classed as cell-based. The following applies: HEK-293 cells expressing human cardiac sodium channel SCN5A, 30,000 nM, read-out: Na+ channel patch clamp (% inhibition). How it is done:
The compound was tested at a protein-free aqueous buffer. For determining steady state inhibition, sodium currents were elicited every 5 seconds using the following voltage protocol: cells were held at a potential of −90 mV and stepped to −20 mV for 60 ms. Effects were calculated by measuring inhibition of peak current during the test pulse to −20 mV. Rate-dependence of inhibition was assessed by stimulation at frequencies of 1 Hz and 4 Hz.
A general note: The patch-clamp technique gives a direct electrical read-out from membranes.

In data set [3] the target is T1, hERG. Nature of the data set: hERG flux (Tl+ flux, FLIPR) in HEK293 cells. Format: cell-based. The conditions noted are these: HEK293 cells stably expressing hERG. The procedure: HEK293 cells stably-expressing hERG channels were grown (37° C., 5% CO2) in Dulbecco's Modified Eagle's Media supplemented with 10% Sigma fetal bovine serum, non-essential amino acids, 2 mM L-glutamine and 500 μg/ml G418, at incubator.
A 2 mM stock of BTC-AM dye (Molecular Probes, Eugene, Oreg.) was prepared in 100% DMSO and then added 1:1 to 10% (w/v) pluronic acid in DMSO on the day of assay. The dye was then diluted in hERG external EP buffer (140 mM NaCl, 4.0 mM KCl, 1.8 mM CaCl2, 1.0 mM MgCl2, 10 mM HEPES, pH 7.3 and 10 mM glucose; all buffer components obtained from Sigma Chemical). […] Cells are incubated at 21° C. for 45 minutes.
These compounds were then serially-diluted at a 1:2 ratio in DMSO in columns 1-10 and 11-20 of a 384-well plate. Assay-ready plates were generated by stamping 2.5 μl from the DMSO serially diluted plate, which was prepared on the Velocity 11 BioCel. Aqueous plates were created by adding 48 μl of EP buffer and then were diluted 30-45 minutes before the assay was read on the FLIPR. […] Final DMSO concentration in the assay is 1%. Assay-ready aqueous plates were prepared and diluted on a Cybio liquid handler.
Data collection proceeded every second for 48 seconds, and then continued every three seconds for an additional 2 minutes.
The dynamic range of the assay was determined from blanks and totals wells. The totals wells (columns 21 and 22) define maximal hERG activation for the plate (no test compound present), and the blanks wells (columns 23 and 24) define 100% hERG inhibition. […] Raw data points in each sample well were first corrected for cell/signal variation, negative control (blanks) background, and normalized to the positive controls (totals) using the online FLIPR software. Test compound concentration response curves for the hERG Tl^+ flux data were then fit using Excel Fit (ID Business Solutions Limited, Surrey, UK) with a single-site logistic equation, Y=A+((B−A)/1+((C/X)^D))) where A=maximal inhibition. Data were analyzed by fitting maximum amplitudes of change in fluorescence for Tl^+ flux for a given condition of test compound.

Data set [4] in a line: Parallel Artificial Membrane Permeability Assay (PAMPA). The following applies: apical and basolateral pH 7.4. Format: in vitro ADME. How it is done: All experiments are conducted in triplicate determinations.
(PAMPA measures passive passage across an artificial lipid membrane.)

The target in data set [5] is T2, human CCR2 (Homo sapiens, UniProt P41597).
T2 sequence (P41597 1-360 isoform P41597-2): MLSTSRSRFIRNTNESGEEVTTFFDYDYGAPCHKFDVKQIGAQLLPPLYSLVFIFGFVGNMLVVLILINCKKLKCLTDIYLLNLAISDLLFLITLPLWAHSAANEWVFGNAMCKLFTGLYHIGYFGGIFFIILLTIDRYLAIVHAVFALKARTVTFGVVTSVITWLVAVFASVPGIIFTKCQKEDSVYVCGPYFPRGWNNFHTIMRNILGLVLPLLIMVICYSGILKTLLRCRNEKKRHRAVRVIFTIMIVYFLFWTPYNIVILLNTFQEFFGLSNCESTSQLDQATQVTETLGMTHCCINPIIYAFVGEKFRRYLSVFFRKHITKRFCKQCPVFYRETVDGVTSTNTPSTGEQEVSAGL
In words: Human peripheral blood mononuclear cell binding (CCR2 binding), 125I-human MCP-1 tracer. Details: hPBMCs were isolated from human leukopak (Biological Specialty Inc.); endogenous in cells; host or cells: human peripheral blood mononuclear cells from leukopak (Biological Specialty Inc.). The conditions noted are these: hPBMCs, 125I-MCP-1; figure in parentheses in the cell not copied (count of determinations); read-out: CCR2 Binding IC50. How it is done: See also: Yoshimura et al., J. Immunol. 1990, 145, 292. The human CCR2 binding assay was established with human peripheral blood mononuclear cells (hPBMCs) using ^125I-human MCP-1 as the tracer ligand. hPBMCs were isolated from human leukopak (Biological Specialty Inc.) using a standard protocol with Ficoll-Hypaque (Mediatech Cellgro). Isolated hPBMCs were washed and diluted to 1×10^7/ml in binding buffer (RPMI-1640, 0.1% BSA, 20 mM Hepes, pH 7.4). ^125I-MCP-1 (NEN/Perk Elmer) was diluted to 0.45 nM in binding buffer. The compound was diluted in binding buffer at 3-fold the final concentrations used in the binding assay. The binding assay was performed using a 96-well filter plate (Millipore). Total ^125I-MCP-1 binding was assessed as follows: to each reaction of a total volume of 150 μl were added 5×10^5 cells, 0.15 nM […], and compound such that the final concentration ranged from 0 to 100 nM. The plate was incubated at room temperature for 30 minutes followed by three washes with RPMI-1640, 0.1% BSA, 0.4 M NaCl, 20 mM Hepes, pH 7.4 using a vacuum manifold filtration (Millipore). After washing, the plate was air-dried for 60 minutes at room temperature. This was followed by adding 25 μl of Microscint 20 into each well. The plate was sealed and counted on the Trilux for 1 minute. Non-specific binding was determined in the presence of 300 nM cold MCP-1 (PeproTech Inc.). Specific 1-MCP-1 was calculated as the difference between total and non-specific binding. All conditions were tested in duplicate.

Data set [6] deals with T2, human CCR2. In words: CCR2 chemotaxis (MCP-1-induced, THP-1 cells). The data set is classed as cell-based. Details: hPBMCs were isolated from human leukopak (Biological Specialty Inc.); endogenous in cells; host or cells: human peripheral blood mononuclear cells from leukopak (Biological Specialty Inc.). How it is done: The human CCR2 chemotaxis assay was conducted with the human monocytic cell line, THP-1. THP-1 cells were first labeled with the fluorescent dye Calcein-AM in phenol red-free, BSA-free RPMI-1640 (pH 7.4) at 37° C. for 30 minutes with gentle mixing every 15 minutes. The labeled cells were then washed and re-suspended at 1×10^5/ml in chemotaxis buffer (phenol red-free RPMI-1640, 0.1% BSA, pH 7.4). The test compound was diluted in chemotaxis buffer such that the final assay concentration ranged from 0.01 nM to 1 μM. […] To perform the assay, an equal volume of test compound dilutions was mixed with an equal volume of labeled THP-1 cells (Mixture 1), and an equal volume of test compound dilutions was mixed with an equal volume of diluted MCP-1 ligand (Mixture 2). Both mixtures were incubated independently at 37° C. for 10 minutes followed by gentle mixing. MCP-1-induced chemotaxis was then measured in a chemotaxis plate (Becton Dickinson) by placing 50 μl of Mixture 1 in the top chamber and 225 μl of Mixture 2 in the bottom chamber. The plate was covered with a lid and incubated at 37° C. for 30 minutes. 30 minutes later, the plate was read on a Cytofluor. All conditions were tested in duplicate. […] The inhibition achieved by graded concentrations of test compound was calculated as a percentage of the compound-free MCP-1 control.

Data set [7] deals with T2, human CCR2. Nature of the data set: THP-1 binding (CCR2, 125I-human MCP-1 tracer). Set-up: THP-1 human monocytic leukemic cell line, which expresses endogenous CCR2; endogenous in cells; host or cells: THP-1 human monocytic leukemia cells. The following applies: metabolite examples; THP-1 cells, 125I-MCP-1. How it is done: The human CCR2 binding assay was also established with the THP-1 human monocytic leukemic cell line, which expresses endogenous CCR2, using 125I-human MCP-1 as the tracer ligand. Radioligand competition binding assays were used for assessment of binding affinity of test compounds to the CCR2 receptor. For radioligand competition studies, 100 μl containing 2.5×10^5 THP-1 cells/well (in assay buffer containing 50 mM HEPES, pH7.4, 5 mM MgCl2, 1 mM CaCl2 and 0.5% BSA) were added to 96-well assay plates containing test compound in 3-fold serial dilution, with final concentrations ranging from […]. Subsequently, 50 μl ^125I-MCP-1 radioligand at a final concentration of 0.2 nM in assay buffer were added to the reaction. After a 90 minute incubation period at room temperature, the binding reaction was terminated by harvesting on GF/B filter plates (PerkinElmer Cat. No. 6005177) followed by washing with ice-cold wash buffer (50 mM HEPES, pH 7.4, 0.1% BSA, 0.5 M NaCl) to remove unbound ligand. After washing, the plate was dried for 45 minutes at 60° C. followed by addition of 40 μl MicroScint 20 scintillation fluid, sealed and analyzed by the Packard TopCount reader. […] The competition data was plotted as a percentage inhibition of radioligand specific bound in the absence of test compound (percent of total signal). After correcting for non-specific binding, IC50 values were determined.

The nature of data set [8]: Single-dose pharmacokinetics in monkeys. Format: in vivo. The conditions noted are these: male, cynomolgus monkey, plasma, dose per compound (mg/kg). From the text:
(1500-2000×g) to obtain plasma.

The nature of data set [9]: Single-dose pharmacokinetics in rats. Format: in vivo. The following applies: male, Sprague-Dawley, plasma, rat, dose per compound (mg/kg). The procedure: (1500-2000×g) to obtain plasma. […] Plasma samples, obtained by centrifugation at 4° C.

Sequence of human cardiac sodium channel, SCN5A (Nav1.5) (Q14524 whole entry): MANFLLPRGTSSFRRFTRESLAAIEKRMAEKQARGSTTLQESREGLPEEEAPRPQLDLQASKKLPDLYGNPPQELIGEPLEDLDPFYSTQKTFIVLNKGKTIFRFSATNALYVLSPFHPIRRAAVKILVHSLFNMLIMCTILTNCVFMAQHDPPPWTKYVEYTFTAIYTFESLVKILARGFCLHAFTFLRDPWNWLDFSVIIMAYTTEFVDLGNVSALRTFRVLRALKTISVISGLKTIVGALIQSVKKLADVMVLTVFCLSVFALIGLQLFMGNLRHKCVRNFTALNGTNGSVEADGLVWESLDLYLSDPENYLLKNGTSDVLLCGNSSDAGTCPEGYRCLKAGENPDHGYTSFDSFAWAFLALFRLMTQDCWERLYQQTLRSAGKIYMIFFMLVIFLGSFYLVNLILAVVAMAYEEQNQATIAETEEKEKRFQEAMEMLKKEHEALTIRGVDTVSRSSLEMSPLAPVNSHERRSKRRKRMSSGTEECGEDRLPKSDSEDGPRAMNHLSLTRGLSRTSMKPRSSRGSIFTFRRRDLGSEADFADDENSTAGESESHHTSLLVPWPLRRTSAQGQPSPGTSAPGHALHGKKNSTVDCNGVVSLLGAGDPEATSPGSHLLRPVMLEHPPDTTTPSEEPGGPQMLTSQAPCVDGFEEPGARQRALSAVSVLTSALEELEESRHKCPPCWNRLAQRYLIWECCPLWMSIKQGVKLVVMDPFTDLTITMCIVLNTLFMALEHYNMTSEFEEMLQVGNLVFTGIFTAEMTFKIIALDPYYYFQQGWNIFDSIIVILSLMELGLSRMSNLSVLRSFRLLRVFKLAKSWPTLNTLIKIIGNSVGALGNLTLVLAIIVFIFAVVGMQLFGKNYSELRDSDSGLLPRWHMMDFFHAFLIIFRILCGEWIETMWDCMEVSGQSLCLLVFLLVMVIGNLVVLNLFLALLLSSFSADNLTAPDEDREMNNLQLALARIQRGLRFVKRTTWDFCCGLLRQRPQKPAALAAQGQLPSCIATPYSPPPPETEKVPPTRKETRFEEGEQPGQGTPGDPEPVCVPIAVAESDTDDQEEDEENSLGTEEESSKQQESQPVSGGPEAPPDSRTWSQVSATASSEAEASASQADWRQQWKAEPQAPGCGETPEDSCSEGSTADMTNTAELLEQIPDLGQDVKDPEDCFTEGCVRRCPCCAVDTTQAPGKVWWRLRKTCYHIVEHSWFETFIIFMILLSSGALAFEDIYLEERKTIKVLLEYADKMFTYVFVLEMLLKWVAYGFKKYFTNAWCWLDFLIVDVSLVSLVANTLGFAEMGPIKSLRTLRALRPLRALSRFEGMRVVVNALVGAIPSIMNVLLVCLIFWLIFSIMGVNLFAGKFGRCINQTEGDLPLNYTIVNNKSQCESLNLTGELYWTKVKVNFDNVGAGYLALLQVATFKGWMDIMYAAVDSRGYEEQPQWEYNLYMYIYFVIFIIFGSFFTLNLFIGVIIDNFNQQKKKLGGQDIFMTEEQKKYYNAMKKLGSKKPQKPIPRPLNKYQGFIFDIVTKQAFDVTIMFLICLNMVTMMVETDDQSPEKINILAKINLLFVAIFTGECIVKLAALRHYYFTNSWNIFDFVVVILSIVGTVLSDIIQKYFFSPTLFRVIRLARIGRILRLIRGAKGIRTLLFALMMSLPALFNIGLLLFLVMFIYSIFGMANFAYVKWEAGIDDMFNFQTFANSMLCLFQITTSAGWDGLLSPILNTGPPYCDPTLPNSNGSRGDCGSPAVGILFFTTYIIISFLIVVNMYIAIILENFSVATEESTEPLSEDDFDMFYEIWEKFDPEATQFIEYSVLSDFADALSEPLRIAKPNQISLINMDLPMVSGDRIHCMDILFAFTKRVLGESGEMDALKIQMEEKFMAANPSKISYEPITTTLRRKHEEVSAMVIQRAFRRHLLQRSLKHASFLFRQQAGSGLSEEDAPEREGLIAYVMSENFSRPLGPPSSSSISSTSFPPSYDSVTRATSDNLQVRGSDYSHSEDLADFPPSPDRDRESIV
T1 sequence (Q12809 whole entry): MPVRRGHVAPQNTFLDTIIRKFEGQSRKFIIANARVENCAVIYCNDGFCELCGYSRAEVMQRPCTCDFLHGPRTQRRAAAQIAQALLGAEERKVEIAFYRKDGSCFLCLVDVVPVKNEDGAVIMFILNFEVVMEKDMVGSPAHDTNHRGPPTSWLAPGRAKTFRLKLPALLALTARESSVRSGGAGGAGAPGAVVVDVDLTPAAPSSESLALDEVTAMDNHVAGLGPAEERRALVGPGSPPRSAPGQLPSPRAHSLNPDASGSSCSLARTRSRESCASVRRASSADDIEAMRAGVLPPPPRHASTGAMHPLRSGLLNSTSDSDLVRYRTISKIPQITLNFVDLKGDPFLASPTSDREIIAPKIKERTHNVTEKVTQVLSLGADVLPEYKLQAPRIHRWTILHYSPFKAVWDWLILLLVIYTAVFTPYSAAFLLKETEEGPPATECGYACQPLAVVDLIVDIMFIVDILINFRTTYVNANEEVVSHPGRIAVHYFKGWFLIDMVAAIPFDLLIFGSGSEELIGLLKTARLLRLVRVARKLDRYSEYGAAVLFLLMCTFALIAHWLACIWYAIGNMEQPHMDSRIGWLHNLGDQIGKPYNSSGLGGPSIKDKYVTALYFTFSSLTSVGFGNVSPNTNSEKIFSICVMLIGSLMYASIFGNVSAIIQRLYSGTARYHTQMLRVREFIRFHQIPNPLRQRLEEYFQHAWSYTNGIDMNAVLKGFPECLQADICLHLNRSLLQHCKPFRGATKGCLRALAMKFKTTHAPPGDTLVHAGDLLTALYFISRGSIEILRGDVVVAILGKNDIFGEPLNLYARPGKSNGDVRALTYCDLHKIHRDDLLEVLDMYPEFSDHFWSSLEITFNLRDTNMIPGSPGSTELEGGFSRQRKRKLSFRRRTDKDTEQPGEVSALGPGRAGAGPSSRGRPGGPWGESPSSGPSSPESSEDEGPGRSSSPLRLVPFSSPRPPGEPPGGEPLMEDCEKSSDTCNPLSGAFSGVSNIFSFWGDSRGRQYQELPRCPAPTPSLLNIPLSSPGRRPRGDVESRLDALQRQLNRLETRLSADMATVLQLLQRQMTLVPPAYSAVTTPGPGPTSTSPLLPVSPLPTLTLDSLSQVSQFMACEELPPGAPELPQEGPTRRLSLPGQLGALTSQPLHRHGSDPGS

One may read the inhibition as the change of the read-out against control, counted positive when it falls. One may read the IC50 as the concentration at which inhibition is half-maximal. As a reminder, the Papp is the rate of passage across a membrane or cell layer, normalised by area and donor concentration. A higher Papp goes with fast passage. `CC(C)N(C)[C@@H]1CC[C@H](N2CC[C@H](Nc3ncnc4ccc(C(F)(F)F)cc34)C2=O)[C@H](NC=O)C1` [Example 7, N-((1R,2S,5R)-5-(isopropyl(methyl)amino)-2-((S)-2-oxo-3-(6-(trifluoromethyl)quinazolin-4-ylamino)pyrrolidin-1-yl)cyclohexyl)formamide] gave an inhibition at 10000 nM in [1] of 12%. Further, the inhibition at 30000 nM in data set [1] was 29%; in [2], 10%. For the same molecule, the values for the IC50 in data set [3], in data set [5] and in data set [6] were above 80000 nM, 1.72 ± 0.54 nM and 2.85 nM, respectively. In addition, the Papp at 4 h, 100 µM in [4] amounted to 32.6 ± 22.1 ×10⁻⁶ cm/s.
Regarding `CC(=O)N[C@@H]1C[C@H](N(C)C(C)C)CC[C@@H]1N1CC[C@H](NC(=O)c2cccc(C(C)(C)C)n2)C1=O` [Example 9, N-((3S)-1-((1S,2R,4R)-2-acetamido-4-(isopropyl(methyl)amino)cyclohexyl)-2-oxo-3-pyrrolidinyl)-6-tert-butyl-2-pyridinecarboxamide], the inhibition at 10000 nM in [1] stood at 26%. Moreover, the inhibition at 30000 nM in [1] was 41%; in data set [2], 6%. The IC50 in data set [3] was above 80000 nM; in data set [5], 1.69 ± 0.67 nM; in data set [6], 0.35 nM. Further, in data set [4], the Papp at 4 h, 100 µM was 26.6 ×10⁻⁶ cm/s.
`CC(=O)N[C@@H]1C[C@H](NC(C)C)CC[C@@H]1N1CC[C@H](Nc2nc[n+]([O-])c3ccc(C(F)(F)F)cc23)C1=O` [Example 6, N-((1R,2S,5R)-5-(isopropylamino)-2-((3S)-3-((1-oxido-6-(trifluoromethyl)-4-quinazolinyl)amino)-2-oxo-1-pyrrolidinyl)cyclohexyl)acetamide]: the IC50 in data set [7] was 139 nM.
Usually clearance stands for a measure of how efficiently the substance is removed, as volume per time. High values mean efficient removal, low ones inefficient removal. A word on the AUC: it is the area under the concentration-time curve, a measure of exposure. A high value points to more exposure. What is called bioavailability is dose-corrected exposure relative to a reference, in per cent. A higher bioavailability goes with good availability. On to `CCC(=O)N[C@@H]1C[C@H](N)CC[C@@H]1N1CC[C@H](Nc2ncnc3ccc(C(F)(F)F)cc23)C1=O` [Example 10, N-((1R,2S,5R)-5-amino-2-((3S)-2-oxo-3-((6-(trifluoromethyl)-4-quinazolinyl)amino)-1-pyrrolidinyl)cyclohexyl)propanamide], for which the inhibition at 30000 nM in data set [1] was 33%; in data set [2], 35%. The results for the half-inhibitory concentration (IC50) in data set [3], in [5] and in data set [6] were above 80000 nM, 5.18 ± 1.98 nM and 1.6 ± 0.42 nM, respectively. For the same molecule, the Papp at 4 h, 100 µM in data set [4] worked out at 22.8 ×10⁻⁶ cm/s. Further, the clearance is 21 mL/min/kg in data set [8] (IV) and 45 mL/min/kg in data set [9] (IV). Moreover, the AUC in data set [8] (PO) is 1.08 µM·h; in data set [9] (PO), 4.23 µM·h. The bioavailability was 67% in data set [8] (oral bioavailability) and 57% in data set [9] (oral bioavailability).
The molecule `CC(=O)N[C@@H]1C[C@H](N(C)C(C)C)CC[C@@H]1N1CC[C@H](Nc2ncnc3cnc(C(C)(C)C)nc23)C1=O` [Example 1, N-((1R,2S,5R)-2-((3S)-3-((6-tert-butylpyrimido[5,4-d]pyrimidin-4-yl)amino)-2-oxo-1-pyrrolidinyl)-5-(isopropyl(methyl)amino)cyclohexyl)acetamide] gave an inhibition at 10000 nM in [1] of 8%. The inhibition at 30000 nM in data set [1] came out at 17%; in data set [2], 13%. The figures for the IC50 in data set [3], in [5] and in data set [6] were above 80000 nM, 3.34 ± 0.32 nM and 3.85 ± 0.36 nM, respectively. The same molecule had an apparent permeability coefficient (Papp) at 4 h, 100 µM in data set [4] of 18.7 ×10⁻⁶ cm/s.
